In ChEMBL document CHEMBL5038616, “Synthesis and biological evaluation of N, N-dialkylcarboxy coumarin-NO donor conjugates as potential anticancer agents” (Bioorg Med Chem Lett, 2021):
Active and inactive are the calls of the source. No cut-off for these calls is given here.

Tests used:
WiDr = assay: Antiproliferative activity against human WiDr cells assessed as inhibition of cell proliferation by MTT assay; assay type: functional, cell-based
MDA-MB-231 [1] = assay: Antiproliferative activity against human MDA-MB-231 cells assessed as inhibition of cell proliferation by MTT assay; assay type: functional, cell-based
[2] = Cytotoxicity against human MCF-10A cells assessed as inhibition of cell proliferation by MTT assay; assay type: toxicity, cell-based
4T1 = assay: Antiproliferative activity against mouse 4T1 cells assessed as inhibition of cell proliferation by MTT assay; assay type: functional, cell-based
MDA-MB-231 [3] = assay: Induction of apoptosis in human MDA-MB-231 cells assessed as early apoptotic cells at 10 nM by annexin V-FITC and PI staining based flow cytometry method (reference value: 1.92 %); assay type: functional
MDA-MB-231 [4] = assay: Induction of apoptosis in human MDA-MB-231 cells assessed as late apoptotic cells at 25 nM by annexin V-FITC and PI staining based flow cytometry method (reference value: 2.02 %); assay type: functional
MDA-MB-231 [5] = assay: Induction of apoptosis in human MDA-MB-231 cells assessed as viable cells at 25 nM by annexin V-FITC and PI staining based flow cytometry method (reference value: 93.2 %); assay type: functional; conditions: read-out: Activity
[6] = Cytotoxicity against human HDFa cells assessed as inhibition of cell proliferation by MTT assay; assay type: toxicity, cell-based
MDA-MB-231 [7] = assay: Induction of apoptosis in human MDA-MB-231 cells assessed as viable cells at 10 nM by annexin V-FITC and PI staining based flow cytometry method (reference value: 93.2 %); assay type: functional; conditions: read-out: Activity
MDA-MB-231 [8] = assay: Antitumor activity against human MDA-MB-231 cells xenografted in NOD-SCID mouse assessed as reduction in tumor mass at 20 mg/kg, ip measured for every 2 to 3 days; assay type: functional; design: scale not given: the % may be the effect or the level left; conditions: time 2-3 day
MDA-MB-231 [9] = assay: Inhibition of colony formation in human MDA-MB-231 cells assessed as reduction in colony formation at 1 to 3 nM relative to control; assay type: functional, cell-based; conditions: dose 1-3 nM
MDA-MB-231 [10] = assay: Induction of apoptosis in human MDA-MB-231 cells assessed as necrotic cells at 10 nM by annexin V-FITC and PI staining based flow cytometry method(reference value: 2.88 %); assay type: functional
MDA-MB-231 [11] = assay: Induction of apoptosis in human MDA-MB-231 cells assessed as late apoptotic cells at 10 nM by annexin V-FITC and PI staining based flow cytometry method (reference value: 2.02 %); assay type: functional
MDA-MB-231 [12] = assay: Induction of NO production in human MDA-MB-231 cells assessed as increase in NO fluorescence at 50 nM treated with DAF-DM diacetate for 30 mins and measured after 2 hrs incubation by confocal microscopic analysis; assay type: functional, cell-based
MDA-MB-231 [13] = assay: Induction of apoptosis in human MDA-MB-231 cells assessed as early apoptotic cells at 25 nM by annexin V-FITC and PI staining based flow cytometry method (reference value: 1.92 %); assay type: functional
MDA-MB-231 [14] = assay: Induction of apoptosis in human MDA-MB-231 cells assessed as necrotic cells at 25 nM by annexin V-FITC and PI staining based flow cytometry method (reference value: 2.88 %); assay type: functional
[15] = Toxicity in […] mouse xenografted with human MDA-MB-231 cells assessed as body weight loss at 20 mg/kg, ip dosed once daily for 14 days relative to control; assay type: organism-based; conditions: in vivo, 336 h, time 14 day
MDA-MB-231 [16] = assay: Induction of apoptosis in human MDA-MB-231 cells assessed as viable cells at 50 nM by annexin V-FITC and PI staining based flow cytometry method (reference value: 93.2 %); assay type: functional; conditions: read-out: Activity
MDA-MB-231 [17] = assay: Induction of NO production in human MDA-MB-231 cells assessed as nitrite level at 100 uM by Griess reagent based assay; assay type: functional, cell-based
MDA-MB-231 [18] = assay: Induction of apoptosis in human MDA-MB-231 cells assessed as late apoptotic cells at 50 nM by annexin V-FITC and PI staining based flow cytometry method (reference value: 2.02 %); assay type: functional
MDA-MB-231 [19] = assay: Antitumor activity against human MDA-MB-231 cells xenografted in NOD-SCID mouse assessed as reduction in tumor volume at 20 mg/kg, ip measured for every 2 to 3 days; assay type: functional; design: scale not given: the % may be the effect or the level left; conditions: time 2-3 day
MDA-MB-231 [20] = assay: Induction of apoptosis in human MDA-MB-231 cells assessed as necrotic cells at 50 nM by annexin V-FITC and PI staining based flow cytometry analysis (reference value: 2.88 %); assay type: functional
MDA-MB-231 [21] = assay: Induction of apoptosis in human MDA-MB-231 cells assessed as early apoptotic cells at 50 nM by annexin V-FITC and PI staining based flow cytometry method (reference value: 1.92 %); assay type: functional
MDA-MB-231 [22] = assay: Cell cycle arrest in human MDA-MB-231 cells assessed as accumulation of cells at G0/G1 phase at 20 nM by PI staining based flow cytometry method; assay type: functional

Row | Compound | IC50 (MDA-MB-231 [1]) | IC50 (4T1) | IC50 (WiDr) | IC50 [2] | IC50 [6] | Activity (MDA-MB-231 [12]) | Activity (MDA-MB-231 [17]) | also measured
1 | O=C(OCCO)c1cc2ccc(N(Cc3ccccc3)Cc3ccccc3)cc2oc1=O | > 100 µM | > 100 µM | > 100 µM | > 100 µM | – | – | – | –
2 | O=C(O)c1cc2ccc(N(Cc3ccccc3)Cc3ccccc3)cc2oc1=O | > 100 µM | > 100 µM | > 100 µM | > 100 µM | – | – | – | –
3 | CCN(CC)c1ccc2cc(C(=O)OCCO)c(=O)oc2c1 | > 100 µM | > 100 µM | > 100 µM | > 100 µM | – | – | – | –
4 | CCN(CC)c1ccc2cc(C(=O)OCCOc3no[n+]([O-])c3S(=O)(=O)c3ccccc3)c(=O)oc2c1 | 3.6 µM | 1.3 µM | 2.2 µM | – | 1.48 µM | Active | Active | –

More lines, main results first:

Row | IC50 (MDA-MB-231 [1]) | IC50 (4T1) | Compound | IC50 (WiDr) | IC50 [2] | IC50 [6] | Activity (MDA-MB-231 [12]) | Activity (MDA-MB-231 [17]) | also measured
5 | 0.02 µM | 0.13 µM | O=C(OCCOc1no[n+]([O-])c1S(=O)(=O)c1ccccc1)c1cc2ccc(N(Cc3ccccc3)Cc3ccccc3)cc2oc1=O | 0.03 µM | 34 µM | 1.48 µM | Active | – | Activity (MDA-MB-231 [3]): 2.04%; Activity (MDA-MB-231 [4]): 19.4%; viability at 0.025 µM (MDA-MB-231 [5]): 75.9%; viability at 0.01 µM (MDA-MB-231 [7]): 90.9%; Activity (MDA-MB-231 [8]): 35%; Activity (MDA-MB-231 [9]): Dose-Dependent Effect; Activity (MDA-MB-231 [10]): 1.36%; Activity (MDA-MB-231 [11]): 5.7%; Activity (MDA-MB-231 [13]): 3.04%; Activity (MDA-MB-231 [14]): 1.65%; Activity [15]: Non-Toxic; viability at 0.05 µM (MDA-MB-231 [16]): 60.8%; IC50 (MDA-MB-231 [17]): Active; Activity (MDA-MB-231 [18]): 32.9%; Activity (MDA-MB-231 [19]): 48%; Activity (MDA-MB-231 [20]): 1.47%; Activity (MDA-MB-231 [21]): 4.8%; Activity (MDA-MB-231 [22]): Active
6 | 0.46 µM | 0.96 µM | O=C(c1cc2ccc(N(Cc3ccccc3)Cc3ccccc3)cc2oc1=O)N1CCN(CCOc2no[n+]([O-])c2S(=O)(=O)c2ccccc2)CC1 | 10 µM | 8.6 µM | 5.31 µM | Active | inactive | –
